What was measured:
Format in all cases: cell-based, human
caspase 3 = experiment: Western blot for active, cleaved caspase 3; settings: lysates of treated BJ-TERT/LT/ST/RAS^V12 cells
Protocol: BJ-TERT/LT/ST/RAS^V12 cells were seeded prior to the experiment at 5×10^5 cells in 60 mm dishes. The cells were treated with 5 μg/ml erastin (9 μM) for 2, 4, 6, 8 or 10 hours. One dish was maintained for camptothecin treatment (0.4 μg/ml for 24 h) as a positive control. Cells were lysed after each time point in lysis buffer (50 mM HEPES KOH pH 7.4, […], 2 mM EDTA, 0.5% Triton X-100, 1.5 mM Na3VO4, 50 mM NaF, 10 mM sodium pyrophosphate, 10 mM sodium beta-glycerophosphate and protease inhibitor tablet (Roche)). Protein content was quantified using a Biorad protein assay reagent. Equal amounts of protein were resolved on 16% SDS-polyacrylamide gel. The electrophoresed proteins were transblotted onto a PVDF membrane, blocked with 5% milk and incubated with anti-active caspase-3 polyclonal antibody (BD Pharmingen) at 1:1500 dilution overnight at 4° C. The membrane was then incubated in anti-rabbit-HRP (Santa Cruz Biotechnology) at 1:3000 dilution for 1 hour and developed with an enhanced chemiluminescence mixture (NEN life science, Renaissance). To test for equivalent loading in each lane, blots were stripped, blocked, and probed with an anti-eIF-4E antibody (BD Transduction laboratories) at 1:1000 dilution.

[1] = system: BJ-TERT/LT/ST/RAS^V12 cells; experiment: Nuclear morphology assay; settings: fluorescence microscopy, 9 μM erastin or 1.1 μM camptothecin, 18 hours
Protocol: 200,000 tumorigenic BJ-TERT/LT/ST/RAS^V12 cells were seeded in 2 mL on glass coverslips in each well of a six-well dish, treated with nothing (NT), 9 μM erastin or 1.1 μM camptothecin (CPT) in growth medium for 18 hours while incubating at 37° C. with 5% CO2. Nuclei were stained with 25 μg/mL Hoechst 33342 (Molecular Probes) and viewed using an oil immersion 100× objective on a fluorescence microscope.

[2] = system: BJ-TERT/LT/ST/RAS^V12 cells; experiment: DNA fragmentation (DNA ladder formation)
[3] = system: BJ-TERT/LT/ST/RAS^V12 cells; experiment: Calcein AM viability assay, dilution series, BJ-TERT/LT/ST/RAS^V12 tumorigenic cells
Protocol: Described here is work carried out to identify compounds with increased potency or activity in the presence of hTERT, LT, ST, E6, E7 or RAS^V12. […] The primary screen tested (in quadruplicate) the effect of treating tumorigenic […], corresponding to 10 μM for a compound with a molecular weight of 400, which is the approximate median molecular weight of the libraries. […] In live cells, calcein AM is cleaved by intracellular esterases, forming the anionic fluorescent derivative calcein, which cannot diffuse out of live cells. […] The IC50 value (concentration required to inhibit 50% of the calcein AM signal) was calculated for each compound in each cell line (Table 1).
Calcein acetoxylmethyl ester (AM) is a cell membrane-permeable, non-fluorescent compound that is cleaved by intracellular esterases to form the anionic, cell-impermeable, fluorescent compound calcein. Viable cells are stained by calcein because of the presence of intracellular esterases and because the intact plasma membrane prevents fluorescent calcein from leaking out of cells (Wang et al., 1993, supra). Cells were seeded in 384-well plates using a Zymark Sciclone ALH, treated with each […], washed with phosphate-buffered saline on a Packard Minitrak with a 384-well washer and incubated for four hours with 0.7 μg/mL calcein (Molecular Probes). Total fluorescence intensity in each well was recorded on a Packard Fusion platereader, and converted to a percent inhibition of signal by subtracting the instrument background and dividing by the average signal obtained when cells were not treated with any compound.
Compounds to be retested were purchased from manufacturers. Stocks were prepared in DMSO at a concentration of 1 mg/ml in 384-well polypropylene plates with a 16-point, two-fold dilution dose curve of each compound in a column, in duplicates. Column 1-2 and 23-24 were left empty for controls. Daughter retest plates were prepared from stock retest plate by diluting 66.6 fold in DMEM in 384-well deep-deep well plates (4.5 μl transfer into 300 μl). Cells were seeded at a density of 6000 per well in 40 μl, and 20 μl was added from a daughter retest plate. […]
The IC50 in primary BJ cells was divided by the IC50 in BJ-TERT/LT/ST/RAS^V12 tumorigenic cells to obtain a tumor selectivity ratio for each compound. The compound selectivity for each genetic element was determined by calculating the selectivity ratio for each subsequent pair of cell lines in a series.

BJ cells = experiment: Calcein AM viability assay, dilution series, BJ primary cells; settings: two days
Source text: Described here is work carried out to identify compounds with increased potency or activity in the presence of hTERT, LT, ST, E6, E7 or RAS^V12. Engineered cell lines with these genetic elements were used to screen 23,550 compounds, including 20,000 compounds from a combinatorial library, 1,990 compounds from the National Cancer Institute diversity collection, and 1,540 biologically active known compounds that were selected and purchased by Applicant and formatted into a screenable collection. […] Cell viability was measured using the dye calcein acetoxymethyl ester (calcein AM) (Wang et al., 1993, Hum. Immunol. 37, 264-270), which is a non-fluorescent compound that freely diffuses into cells. […]
Calcein acetoxylmethyl ester (AM) is a cell membrane-permeable, non-fluorescent compound that is cleaved by intracellular esterases to form the anionic, cell-impermeable, fluorescent compound calcein. […] Total fluorescence intensity in each well was recorded on a Packard Fusion platereader, and converted to a percent inhibition of signal by subtracting the instrument background and dividing by the average signal obtained when cells were not treated with any compound. […]
Mean RFU (relative fluorescence units) for untreated cells was calculated by averaging columns 1, 2, and 23 (wells with cells but lacking compounds). […]

SMILES | activated (cleaved) caspase 3 (caspase 3) | nuclear morphology (karyorhexis, margination of chromatin) [1] | DNA fragmentation (formation of a DNA ladder) [2] | time required to cause death ([3]; BJ-TERT/LT/ST/RAS^V12 cells) | IC50, 50% inhibition of calcein AM staining, BJ-TERT/LT/ST/Ras^v12 ([3]; BJ-TERT/LT/ST/Ras^v12 cells, two days) | Tumor Selectivity ([3]; IC50 in primary BJ cells divided by IC50 in BJ-TERT/LT/ST/RAS^V12 tumorigenic cells) | IC50, concentration required to achieve 50% inhibition of calcein AM staining, BJ (BJ cells)
CC[C@@]1(O)C(=O)OCc2c1cc1n(c2=O)Cc2cc3ccccc3nc2-1 [Camptothecin, camptothecin] | harbor activated caspase 3 | karyorhexis and margination of chromatin were clearly visible | induces DNA fragmentation | two days | – | – | –
Cc1c2ccccc2c(CSC(=N)N)c2ccccc12.Cl [NSC146109] | – | – | – | – | 2.5 µg/mL | >4 | >5 µg/mL

Source: patent US8124365B2, “Identification of genotype-selective anti-tumor agents” (Whitehead Institute for Biomedical Research, priority 2003, dated 2012)
